“Also recorded” adds a separate entry of the source. Read-outs that look alike come from different tables or passages of the source.
How the values were obtained:
[1] = tested on: rats; assay: Gradual hypotension during anesthesia in rats; type: in vivo, male SD rats; conditions: rat
Protocol: Male SD rats (Charles River Japan Inc.) were anesthetized with intravenous thiopental 50 mg/kg as a bolus, followed by 1% enflurane in air.
A femoral artery was catheterized to monitor the blood pressure and heart rate, while a femoral vein was catheterized for the administration of each of the test drugs.
The control values were obtained before the administration of each test drug. Each test drug was then administered using a syringe in a dose-dependent manner for 15 minutes. The percentage (%) of the decrease of blood pressure was determined when stabilized. Changes in heart rate (H.R.) at the administration of each test drug were measured. Furthermore,the recovery of mean blood pressure after intravenous infusion of each test drug was also determined from the decrease in heart rate and the blood pressure at a maximum dose of each test drug.

[2] = tested on: rabbit platelet aggregation; assay: Inhibitory effect on rabbit platelet aggregation; type: cell-based; conditions: for IC50: Oryctolagus cuniculus, Platelet
Protocol: Fresh blood samples were collected from male Japanese white rabbits weighing 2-3 kg. Blood was anticoagulated with citric acid (1 ml 3.8% citric acid solution +9 ml blood). These samples were centrifuged at room temperature for 20 min at 200×g to obtained platelet-rich plasma (PRP). Furthermore, the supernatant liquid was centrifuged for 10 min at 1500×g to obtained platelet-poor plasma (PPP). Aggregation of platelests was measured photometrically in a Nihon Kohden hema tracer equipped with a mechanical stirring device and with a chart record. At this time, the chart recorder was calibrated as follows: the light transmission obtained with PPP was set as 100% transmission and the optical density of PRP was taken as 0% transmission. Maximal aggregation, i.e. the maximal change in optical density of the primary wave calculated in percent light transmission. From the study, it was determined that ADP, Ap3A, PAF(platelet activating factor) and collagen induced maximal aggregations at a concentration of 1×10^-5 M, 1×10^-4 M, 1.9×10^-7 M and 5 μg/kg, respectively. In the following studies, these aggregating agents were used at maximal dose. The effect of Ap4A on platelet aggregation by ADP and Ap3A were tested. In this time, Ap4A was pretreated for 1 or 10 min before the addition of aggregating agents. Also, after the platelet aggregation was induced by addition of ADP, PAF or collagen to PRP, the platelet aggregate dispersing effect of Ap4A was tested.

[3] = enflurane, infusion 1 μg/kg/min
[4] = enflurane, infusion 3 μg/kg/min
[5] = enflurane, infusion 10 μg/kg/min
[6] = enflurane, infusion 30 μg/kg/min
[7] = enflurane, infusion 100 μg/kg/min
[8] = enflurane, infusion 300 μg/kg/min
[9] = enflurane, infusion 1000 μg/kg/min
[10] = enflurane, infusion 3000 μg/kg/min

## Nc1ncnc2c1ncn2[C@@H]1O[C@H](COP(=O)(O)OP(=O)(O)OP(=O)(O)OP(=O)(O)OC[C@H]2O[C@@H](n3cnc4c(N)ncnc43)[C@H](O)[C@@H]2O)[C@@H](O)[C@H]1O [Ap4A, diadenosine 5',5'"-p^1,p^4 -tetraphosphate]
[1]; enflurane
  administration that gradually decreased blood pressure: ≥ 10 µg/kg/min
[1]; enflurane, 300 μg/kg/min
  fall in blood pressure: about 40%
[1]; enflurane, 1000 μg/kg/min or more
  fall in blood pressure: ≥ 60%
[1]; [3]
  Blood Pressure (Δ%): 0%
  Heart Rate (Δ%): 0%
[1]; [4]
  Blood Pressure (Δ%): 0%
  Heart Rate (Δ%): 0%
[1]; [5]
  Blood Pressure (Δ%): -4.7 ± 0.6%
  Heart Rate (Δ%): 1.3 ± 0.6%
[1]; [6]
  Blood Pressure (Δ%): -10.2 ± 1.1%
  Heart Rate (Δ%): 2.7 ± 0.8%
[1]; [7]
  Blood Pressure (Δ%): -22.9 ± 1.2%
  Heart Rate (Δ%): 2.4 ± 1.0%
[1]; [8]
  Blood Pressure (Δ%): -43.5 ± 2.2%
  Heart Rate (Δ%): -6.6 ± 1.2%
[1]; [9]
  Blood Pressure (Δ%): -58.6 ± 1.8%
  Heart Rate (Δ%): -15.9 ± 1.9%
[1]; [10]
  Blood Pressure (Δ%): -65.8 ± 1.2%
  Heart Rate (Δ%): -24.9 ± 2.4%
[1]; enflurane, result in words
  decrease of heart rate: A significant decrease of heart rate was observed at about 60% fall in blood pressure
[1]; result in words
  stability of hypotensive effect at each dose: did not significantly change the blood pressure attained by each dose
[2]
  time to submaximal/maximum anti-platelet aggregating effect: ≤ 1 min
[2]; ADP- and Ap3A-induced, result in words
  inhibition of platelet aggregation: Both ADP- and Ap3A-induced platelet aggregations were inhibited; also recorded: inhibits ADP-induced and Ap3A (diadenosine 5', 5'"-p^1,p^4 -triphosphate)-induced platelet-aggregation reactions
[2]; read-out: Ap4A IC50, ADP (1 × 10^-5 M) induced, 1 min. pretreatment
  IC50: 205 µM
[2]; read-out: Ap4A IC50, ADP (1 × 10^-5 M) induced, 10 min. pretreatment
  IC50: 42 µM
[2]; read-out: Ap4A IC50, Ap3A (1 × 10^-4 M) induced, 1 min. pretreatment
  IC50: 9.06 µM
[2]; read-out: Ap4A IC50, Ap3A (1 × 10^-4 M) induced, 10 min. pretreatment
  IC50: 49.9 µM
[2]; result in words
  time to substantially maximum inhibitory effect: substantially maximum effect is obtained within one minute

From patent publication US5380715A, “Ap4 A as a hypotensive agent” (Fujirebio Inc., priority 1992, dated 1995)
